Reference: US10829452B2, “Histone methyltransferase inhibitors” (GLOBAL BLOOD THERAPEUTICS, INC., priority 2016, dated 2020)
Counter-ions that a name gives are not always drawn. Values belong to the molecule of their own block, whether it stands above or below them.

Target: T1, G9a (Homo sapiens, UniProt Q96KQ7)
T1 sequence (Q96KQ7 1-1210): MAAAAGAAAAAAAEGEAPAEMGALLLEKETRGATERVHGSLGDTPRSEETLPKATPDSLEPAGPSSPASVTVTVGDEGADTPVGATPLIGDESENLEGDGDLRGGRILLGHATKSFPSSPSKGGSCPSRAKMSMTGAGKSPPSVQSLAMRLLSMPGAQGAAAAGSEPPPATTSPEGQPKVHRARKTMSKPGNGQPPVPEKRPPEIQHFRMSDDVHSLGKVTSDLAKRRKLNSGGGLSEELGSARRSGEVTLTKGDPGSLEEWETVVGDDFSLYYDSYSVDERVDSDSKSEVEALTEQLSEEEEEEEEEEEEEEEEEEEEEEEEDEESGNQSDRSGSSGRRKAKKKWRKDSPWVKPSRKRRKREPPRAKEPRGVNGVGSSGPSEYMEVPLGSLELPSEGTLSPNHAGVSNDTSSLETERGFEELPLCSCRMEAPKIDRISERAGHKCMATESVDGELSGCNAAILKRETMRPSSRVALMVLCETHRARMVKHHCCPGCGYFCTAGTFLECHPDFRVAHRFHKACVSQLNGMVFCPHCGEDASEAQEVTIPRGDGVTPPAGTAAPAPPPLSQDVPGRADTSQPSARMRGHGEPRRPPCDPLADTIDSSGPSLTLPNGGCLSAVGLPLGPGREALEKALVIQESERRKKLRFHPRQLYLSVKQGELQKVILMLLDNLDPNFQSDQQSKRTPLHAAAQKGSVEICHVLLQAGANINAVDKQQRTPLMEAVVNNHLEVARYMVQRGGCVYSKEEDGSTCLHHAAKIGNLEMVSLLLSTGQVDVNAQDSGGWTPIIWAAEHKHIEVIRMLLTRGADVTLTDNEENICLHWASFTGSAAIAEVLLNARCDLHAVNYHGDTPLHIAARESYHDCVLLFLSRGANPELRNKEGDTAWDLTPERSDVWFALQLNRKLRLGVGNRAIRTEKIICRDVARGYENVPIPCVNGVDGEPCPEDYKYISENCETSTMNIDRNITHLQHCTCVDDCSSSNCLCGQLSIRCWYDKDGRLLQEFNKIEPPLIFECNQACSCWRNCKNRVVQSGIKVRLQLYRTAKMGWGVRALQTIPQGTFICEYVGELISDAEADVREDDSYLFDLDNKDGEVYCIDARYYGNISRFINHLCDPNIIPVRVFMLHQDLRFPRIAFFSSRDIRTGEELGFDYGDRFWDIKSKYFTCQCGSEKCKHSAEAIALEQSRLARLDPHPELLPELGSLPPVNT
Assay: G9a AlphaLISA enzymatic activity assay
Format: biochemical
Settings: 0.15 nM G9a, 15 uM S-adenosyl-methionine, 100 nM biotinylated histone 3 peptide (1-21), 1 hour at room temperature; read-out: G9a in (uM) (IC50, concentration that produced 50% inhibition)
How it was run: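 Human G9a (0.15 nM) methylated 100 nM biotinylated histone H3(1-21) peptide with 15 uM SAM in Tris-HCl pH9 buffer with NaCl, Tween-20 and DTT, 1 h at room temperature. H3K9me2 was detected by AlphaLISA acceptor/streptavidin donor beads (20 ug/mL each); IC50 from percent inhibition across compound dilutions.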

SMILES: COc1cc2c3c(c(NCC4CCC4)nc2cc1OCCCN1CCCC1)CC(C)(C)C3 [Example 96, N-(cyclobutylmethyl)-8-methoxy-2,2-dimethyl-7-(3-(pyrrolidin-1-yl)propoxy)-2,3-dihydro-1H-cyclopenta[c]quinolin-4-amine formate]
IC50: 0.1 µM

SMILES: COc1cc2c3c(c(C4CCOC4)nc2cc1OCCCN1CCCC1)CCC3 (centres unmarked) [Example 98, 1-(3-{[8-methoxy-4-(oxolan-3-yl)-1H,2H,3H-cyclopenta[c]quinolin-7-yl]oxy}propyl)pyrrolidine formate]
IC50: > 10 µM

SMILES: CC[C@@H](C)Nc1nc2cc(OCCCN3CCCC3)c(OC)cc2c2c1CCC2 [Example 100, N-[(2R)-butan-2-yl]-8-methoxy-7-[3-(pyrrolidin-1-yl)propoxy]-1H,2H,3H-cyclopenta[c]quinolin-4-amine formate]
IC50: 0.047 µM

SMILES: COc1cc2c3c(c(NCC(C)(C)C)nc2cc1OCCCN1CCCC1)CCC3 [Example 101, N-(2,2-dimethylpropyl)-8-methoxy-7-[3-(pyrrolidin-1-yl)propoxy]-1H,2H,3H-cyclopenta[c]quinolin-4-amine formate]
IC50: 0.07 µM

SMILES: COc1cc2c3c(c(NCC(C)C)nc2cc1OCCCN1CCCC1)CCC3 [Example 103, 8-methoxy-N-(2-methylpropyl)-7-[3-(pyrrolidin-1-yl)propoxy]-1H,2H,3H-cyclopenta[c]quinolin-4-amine trifluoroacetate]
IC50: 0.027 µM

SMILES: COc1cc2c3c(c(NC4CC4)nc2cc1OCCCN1CCCC1)CCC3 [Example 105, N-cyclopropyl-8-methoxy-7-[3-(pyrrolidin-1-yl)propoxy]-1H,2H,3H-cyclopenta[c]quinolin-4-amine trifluoroacetate]
IC50: 0.021 µM

SMILES: COc1cc2c3c(c(C4CCCCC4)nc2cc1OCCCN1CCCC1)CCC3 [Example 110, 1-[3-({4-cyclohexyl-8-methoxy-1H,2H,3H-cyclopenta[c]quinolin-7-yl}oxy)propyl]pyrrolidine trifluoroacetate]
IC50: 1.4 µM

SMILES: COc1cc2c3c(c(-c4ccccc4)nc2cc1OCCCN1CCCC1)CCC3 [Example 111, 1-[3-({8-methoxy-4-phenyl-1H,2H,3H-cyclopenta[c]quinolin-7-yl}oxy)propyl]pyrrolidine formate]
IC50: 4.9 µM

SMILES: COc1cc2c3c(c(NC(C)C)nc2cc1OCCCN1CCOCC1)CCC3 [Example 112, 8-methoxy-7-[3-(morpholin-4-yl)propoxy]-N-(propan-2-yl)-1H,2H,3H-cyclopenta[c]quinolin-4-amine trifluoroacetate]
IC50: > 10 µM

SMILES: COc1cc2c3c(c(-c4ccccc4)nc2cc1OCCCN1CCCC1)CC(C)(C)N3 [Example 114, 1-[3-({8-methoxy-2,2-dimethyl-4-phenyl-1H,2H,3H-pyrrolo[3,2-c]quinolin-7-yl}oxy)propyl]pyrrolidine formate]
IC50: 0.17 µM

SMILES: COc1cc2c3c(c(N)nc2cc1OCCCN1CCCC1)CCC3 [Example 116, 8-methoxy-7-[3-(pyrrolidin-1-yl)propoxy]-1H,2H,3H-cyclopenta[c]quinolin-4-amine formate]
IC50: 0.006 µM

More lines, in order of falling IC50, values ahead:

IC50: 1.4 µM
SMILES: COc1cc2c3c(c(NC(C)(C)C)nc2cc1OCCCN1CCCC1)CCC3 [Example 94, N-tert-butyl-8-methoxy-7-[3-(pyrrolidin-1-yl)propoxy]-1H,2H,3H-cyclopenta[c]quinolin-4-amine formate]

IC50: 0.5 µM
SMILES: COc1cc2c3c(c(C4CCCC4)nc2cc1OCCCN1CCCC1)CCC3 [Example 109, 1-[3-({4-cyclopentyl-8-methoxy-1H,2H,3H-cyclopenta[c]quinolin-7-yl}oxy)propyl]pyrrolidine formate]

IC50: 0.36 µM
SMILES: COc1ccc(CNc2nc3cc(OCCCN4CCCC4)c(OC)cc3c3c2CC(C)(C)C3)c(OC)c1 [Example 117, N-[(2,4-dimethoxyphenyl)methyl]-8-methoxy-2,2-dimethyl-7-[3-(pyrrolidin-1-yl)propoxy]-1H,2H,3H-cyclopenta[c]quinolin-4-amine formate]

IC50: 0.11 µM
SMILES: COc1cc2c3c(c(NCCC#N)nc2cc1OCCCN1CCCC1)CCC3 [Example 119, 3-({8-methoxy-7-[3-(pyrrolidin-1-yl)propoxy]-1H,2H,3H-cyclopenta[c]quinolin-4-yl}amino)propanenitrile formate]

IC50: 0.084 µM
SMILES: COc1cc2c3c(c(NCC4CC4)nc2cc1OCCCN1CCCC1)CC(C)(C)C3 [Example 97, N-(cyclopropylmethyl)-8-methoxy-2,2-dimethyl-7-[3-(pyrrolidin-1-yl)propoxy]-1H,2H,3H-cyclopenta[c]quinolin-4-amine formate]

IC50: 0.07 µM
SMILES: COc1cc2c3c(c(NCC(C)C)nc2cc1OCCCN1CCCC1)CC(C)(C)C3 [Example 95, N-isobutyl-8-methoxy-2,2-dimethyl-7-(3-(pyrrolidin-1-yl)propoxy)-2,3-dihydro-1H-cyclopenta[c]quinolin-4-amine formate]

IC50: 0.037 µM
SMILES: COc1cc2c3c(c(NCC4CC4)nc2cc1OCCCN1CCCC1)CCC3 [Example 108, N-(cyclopropylmethyl)-8-methoxy-7-[3-(pyrrolidin-1-yl)propoxy]-1H,2H,3H-cyclopenta[c]quinolin-4-amine trifluoroacetate]

IC50: 0.023 µM
SMILES: CC[C@H](C)Nc1nc2cc(OCCCN3CCCC3)c(OC)cc2c2c1CCC2 [Example 99, N-[(2S)-butan-2-yl]-8-methoxy-7-[3-(pyrrolidin-1-yl)propoxy]-1H,2H,3H-cyclopenta[c]quinolin-4-amine formate]

IC50: 0.02 µM
SMILES: CCCNc1nc2cc(OCCCN3CCCC3)c(OC)cc2c2c1CCC2 [Example 104, 8-methoxy-N-propyl-7-[3-(pyrrolidin-1-yl)propoxy]-1H,2H,3H-cyclopenta[c]quinolin-4-amine trifluoroacetate]

IC50: 0.018 µM
SMILES: COc1cc2c3c(c(N)nc2cc1OCCCN1CCCC1)CC(C)(C)C3 [Example 118, 8-methoxy-2,2-dimethyl-7-[3-(pyrrolidin-1-yl)propoxy]-1H,2H,3H-cyclopenta[c]quinolin-4-amine formate]

IC50: 0.016 µM
SMILES: COc1cc2c3c(c(NC4CCCCC4)nc2cc1OCCCN1CCCC1)CCC3 [Example 107, N-cyclohexyl-8-methoxy-7-[3-(pyrrolidin-1-yl)propoxy]-1H,2H,3H-cyclopenta[c]quinolin-4-amine trifluoroacetate]

IC50: 0.013 µM
SMILES: Cl.Cl.[2H]C(C)(C)Nc1nc2cc(OCCCN3CCCC3)c(OC)cc2c2c1CCC2 [Example 102, 8-methoxy-N-[(2-^2H)propan-2-yl]-7-[3-(pyrrolidin-1-yl)propoxy]-1H,2H,3H-cyclopenta[c]quinolin-4-amine hydrochloride]

IC50: 0.013 µM
SMILES: CCNc1nc2cc(OCCCN3CCCC3)c(OC)cc2c2c1CCC2 [Example 106, N-ethyl-8-methoxy-7-[3-(pyrrolidin-1-yl)propoxy]-1H,2H,3H-cyclopenta[c]quinolin-4-amine trifluoroacetate]

IC50: 0.009 µM
SMILES: COc1ccc(CNc2nc3cc(OCCCN4CCCC4)c(OC)cc3c3c2CCC3)c(OC)c1 [Example 115, N-[(2,4-dimethoxyphenyl)methyl]-8-methoxy-7-[3-(pyrrolidin-1-yl)propoxy]-1H,2H,3H-cyclopenta[c]quinolin-4-amine formate]

IC50: 0.006 µM
SMILES: COc1cc2c3c(c(C4CCCC4)nc2cc1OCCCN1CCCC1)CC(C)(C)N3 [Example 113, 1-[3-({4-cyclopentyl-8-methoxy-2,2-dimethyl-1H,2H,3H-pyrrolo[3,2-c]quinolin-7-yl}oxy)propyl]pyrrolidine hydrochloride]
